From ChEMBL document CHEMBL1149417 (Bioorg Med Chem Lett, 2006)

What was measured:
[1] = molecular target: T1, Estrogen receptor beta (Homo sapiens, UniProt Q92731)
Description: Binding affinity to human ERbeta

[2] = molecular target: T2, Estrogen receptor (Homo sapiens, UniProt P03372); type: functional, cell-based, HEK293
T2 sequence (P03372 whole entry): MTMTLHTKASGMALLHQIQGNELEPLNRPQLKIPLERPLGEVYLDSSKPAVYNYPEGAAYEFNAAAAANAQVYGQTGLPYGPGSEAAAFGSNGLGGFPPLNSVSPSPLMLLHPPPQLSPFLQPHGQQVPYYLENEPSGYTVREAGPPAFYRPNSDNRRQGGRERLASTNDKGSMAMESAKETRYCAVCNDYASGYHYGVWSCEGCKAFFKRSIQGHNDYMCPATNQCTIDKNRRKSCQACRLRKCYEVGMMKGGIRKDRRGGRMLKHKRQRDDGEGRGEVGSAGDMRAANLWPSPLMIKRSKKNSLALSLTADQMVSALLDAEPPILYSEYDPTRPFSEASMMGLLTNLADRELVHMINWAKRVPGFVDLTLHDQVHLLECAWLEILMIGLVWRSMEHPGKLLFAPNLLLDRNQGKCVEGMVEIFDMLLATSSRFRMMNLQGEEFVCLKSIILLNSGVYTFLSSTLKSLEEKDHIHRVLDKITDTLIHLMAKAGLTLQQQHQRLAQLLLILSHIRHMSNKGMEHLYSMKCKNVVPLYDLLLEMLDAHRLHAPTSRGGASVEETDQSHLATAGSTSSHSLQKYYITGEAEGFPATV
Description: Effect on transactivation of ALP gene expression in HEK293 cells transfected with hERalpha

[3] = molecular target: T1, Estrogen receptor beta; type: functional, cell-based, HEK293
Description: Effect on transactivation of ALP gene expression in HEK293 cells transfected with hERbeta

[4] = molecular target: T2, Estrogen receptor
Description: Binding affinity to human ERalpha

[5] = molecular target: T3, Androgen receptor (Homo sapiens, UniProt P10275)
T3 sequence (P10275 whole entry): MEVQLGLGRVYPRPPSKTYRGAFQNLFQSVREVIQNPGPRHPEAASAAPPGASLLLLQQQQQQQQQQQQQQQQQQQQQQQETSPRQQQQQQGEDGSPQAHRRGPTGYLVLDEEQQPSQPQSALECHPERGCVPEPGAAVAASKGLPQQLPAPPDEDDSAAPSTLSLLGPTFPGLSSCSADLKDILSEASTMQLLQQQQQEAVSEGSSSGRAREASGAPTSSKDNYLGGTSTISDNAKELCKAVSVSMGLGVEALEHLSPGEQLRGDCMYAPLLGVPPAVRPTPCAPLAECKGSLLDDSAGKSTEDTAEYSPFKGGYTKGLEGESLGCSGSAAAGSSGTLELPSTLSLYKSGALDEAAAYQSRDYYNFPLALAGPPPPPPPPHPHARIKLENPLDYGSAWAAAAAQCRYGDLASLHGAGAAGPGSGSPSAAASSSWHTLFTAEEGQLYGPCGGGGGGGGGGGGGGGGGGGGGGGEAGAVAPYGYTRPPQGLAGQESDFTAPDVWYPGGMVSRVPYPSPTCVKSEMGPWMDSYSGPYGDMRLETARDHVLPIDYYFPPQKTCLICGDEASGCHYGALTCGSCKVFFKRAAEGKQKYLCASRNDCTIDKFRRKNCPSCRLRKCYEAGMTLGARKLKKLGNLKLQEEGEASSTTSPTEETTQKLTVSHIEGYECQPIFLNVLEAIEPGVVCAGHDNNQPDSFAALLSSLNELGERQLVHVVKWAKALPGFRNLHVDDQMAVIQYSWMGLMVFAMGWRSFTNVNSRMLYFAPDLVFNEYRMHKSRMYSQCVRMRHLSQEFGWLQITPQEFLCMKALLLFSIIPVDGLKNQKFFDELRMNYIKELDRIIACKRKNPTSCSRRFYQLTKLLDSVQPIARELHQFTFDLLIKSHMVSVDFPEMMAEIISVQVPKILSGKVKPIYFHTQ
Description: Inhibitory activity against AR

T1 sequence (Q92731 whole entry): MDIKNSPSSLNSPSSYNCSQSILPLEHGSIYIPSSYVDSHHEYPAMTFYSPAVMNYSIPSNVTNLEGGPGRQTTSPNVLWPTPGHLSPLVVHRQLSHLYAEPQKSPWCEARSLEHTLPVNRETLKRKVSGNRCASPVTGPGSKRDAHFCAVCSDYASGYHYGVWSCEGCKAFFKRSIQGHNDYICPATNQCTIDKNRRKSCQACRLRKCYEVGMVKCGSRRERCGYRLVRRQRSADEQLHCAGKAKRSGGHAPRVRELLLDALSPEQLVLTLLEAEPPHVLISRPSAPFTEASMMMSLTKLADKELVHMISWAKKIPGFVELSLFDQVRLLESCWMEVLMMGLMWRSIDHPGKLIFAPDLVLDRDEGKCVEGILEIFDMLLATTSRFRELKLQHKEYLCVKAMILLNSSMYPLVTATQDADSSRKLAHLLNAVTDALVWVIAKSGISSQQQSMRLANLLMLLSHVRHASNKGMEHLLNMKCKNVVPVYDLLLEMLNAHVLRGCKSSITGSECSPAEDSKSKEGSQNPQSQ

SMILES	IC50 [1] [nM]	EC50 [2] [nM]	EC50 [3] [nM]	IC50 [4] [µM]	IC50 [5] [nM]
C[C@]12CCC3C(CC=C4C[C@@H](O)CC[C@@]43CC=O)C1CC[C@@H]2O (stereo partly specified)	1620	> 1000	> 1000	> 1	> 5000
CCC[C@]12CC[C@H](O)CC1=CCC1C2CC[C@@]2(C)C1CC[C@@H]2O (stereo partly specified)	132			5.16	1770
C[C@]12CCC3C(CC=C4C[C@@H](O)CC[C@@]43/C=C\Cl)C1CC[C@@H]2O (stereo partly specified)	83	> 1000	91	6.69	172
CC#C[C@]12CC[C@H](O)CC1=CCC1C2CC[C@@]2(C)C1CC[C@@H]2O (stereo partly specified)	381	1000	171	> 8.42	3730
C[C@]12CCC3C(CC=C4C[C@@H](O)CC[C@@]43/C=C\F)C1CC[C@@H]2O (stereo partly specified)	25	622	3.8	4.28	11
C[C@]12CCC3C(CC=C4C[C@@H](O)CC[C@@]43/C=C/F)C1CC[C@@H]2O (stereo partly specified)	22	324	8.7	4.16	85
C/C=C/[C@]12CC[C@H](O)CC1=CCC1C2CC[C@@]2(C)C1CC[C@@H]2O (stereo partly specified)	96	47	39	1.16	843
C#CC[C@]12CC[C@H](O)CC1=CCC1C2CC[C@@]2(C)C1CC[C@@H]2O (stereo partly specified)	286	984	153	4.64	1720
C=C[C@]12CCC(=O)C=C1CCC1C2CC[C@@]2(C)C1CC[C@@H]2O (stereo partly specified)	782	> 1000	379	> 10	7.9
C[C@]12CCC3C(CC=C4C[C@@H](O)CC[C@@]43/C=C/Br)C1CC[C@@H]2O (stereo partly specified)	210	> 1000	67	3.98	120
CO/C=C/[C@]12CC[C@H](O)CC1=CCC1C2CC[C@@]2(C)C1CC[C@@H]2O (stereo partly specified)	1300	583	827	> 10	4620
C=C[C@]12CC[C@H](O)CC1=CCC1C2CC[C@@]2(C)C1CC[C@]2(C)O (stereo partly specified)	25	494	31	1.05	169
C=CC[C@]12CC[C@H](O)CC1=CCC1C2CC[C@@]2(C)C1CC[C@@H]2O (stereo partly specified)	128	1000	148	1.74	1770
CC/C=C\[C@]12CC[C@H](O)CC1=CCC1C2CC[C@@]2(C)C1CC[C@@H]2O (stereo partly specified)	361	719	252	3.04	3770
C[C@]12CCC3C(CC=C4C[C@@H](O)CC[C@@]43/C=C/Cl)C1CC[C@@H]2O (stereo partly specified)	122	603	68	5.6	1440
C=C[C@]12CC[C@H](O)CC1=CCC1C2CC[C@@]2(C)C1CC[C@@H]2O (stereo partly specified)	11	982	4.1	2.24	33
C[C@]12CCC3C(CC=C4C[C@@H](O)CC[C@@]43/C=C\Br)C1CC[C@@H]2O (stereo partly specified)	212	> 1000	96	> 10	20
CO/C=C\[C@]12CC[C@H](O)CC1=CCC1C2CC[C@@]2(C)C1CC[C@@H]2O (stereo partly specified)	303	3240	188	3.35	1400
C[C@]12CCC3C(CC=C4C[C@@H](O)CC[C@@]43C=O)C1CC[C@@H]2O (stereo partly specified)	230	844	78	> 10	> 5000
CC[C@]12CC[C@H](O)CC1=CCC1C2CC[C@@]2(C)C1CC[C@@H]2O (stereo partly specified)	16			2.33	33
C[C@]12CCC3C(CC=C4C[C@@H](O)CC[C@@]43CO)C1CC[C@@H]2O (stereo partly specified)	1750	> 1000	> 641	6.32	> 5000
C/C=C\[C@]12CC[C@H](O)CC1=CCC1C2CC[C@@]2(C)C1CC[C@@H]2O (stereo partly specified)	16	344	21	1.96	
C#CC1(O)CCC2C3CC=C4C[C@@H](O)CC[C@]4(C=C)C3CC[C@@]21C (single isomer, unassigned)	14	10	24	0.147	287
C#CC12CC[C@H](O)CC1=CCC1C2CC[C@@]2(C)C1CC[C@@H]2O (single isomer, unassigned)	17	160	8	0.425	1760
C[C@]12CC[C@H]3[C@@H](CCC4=CC(=O)CC[C@@]43C)[C@@H]1CC[C@@H]2O [TESTOSTERONE]	> 10000				
